Broadly, the CC50 is the concentration giving 50% cytotoxicity. As a reminder, the pIC50 is the negative decadic logarithm of the IC50, by convention in mol/L.

Data set [1] in a line: In vitro cytotoxicity assay in HepG2 cells, CCK-8 method. The following applies: human. Background: Tetrazolium dyes change colour on reduction, which living cells bring about.
Description: (§2) In vitro cytotoxicity assay for the compounds disclosed herein was performed in HepG2 cells using the CCK-8 method. HepG2 cells (Beina Bio) in the logarithmic growth phase were collected, the concentration of cell suspension was adjusted, and then the cells were plated on a 96-well cell culture plate at 50,000 cells/well. The cells were then incubated overnight in a cell incubator (5%/humidity, 37° C.), and after 80-90% cell confluence was achieved, test compounds or vehicle (DMSO) at various concentration gradients were added after medium change. The resulting mixture was incubated in the cell incubator (5% humidity, 37° C.) for 48 h. After the treatment, the medium in the plate was discarded. The plate was washed twice with PBS, added with CCK-8 working solution (Beyotime) at 100 μL per well, and then incubated at 37° C. for 1.5 h away from the light. Absorbance at OD450 nm was measured for each well on a microplate reader, and CC50 value of each compound was analyzed and calculated.
The nature of data set [2]: In vitro metabolic stability, liver microsome incubation (guinea pig). In kind it is in vitro ADME. The following applies: 1 mg/mL liver microsome protein, 37° C.; for half-life: guinea pig, liver microsomes, read-out: T1/2 in guinea pig liver microsome min. As for the experimental part: (§1) The in vitro metabolic stability of the compounds disclosed herein was determined through incubation of liver microsomes of various species. A proper amount of test compound was added into a liver microsome reaction system (1 mg/mL liver microsome protein, 25 U/mL glucose-6 phosphate dehydrogenase, 1 mM NADP, 6 mM D-glucose 6-phosphate and 5 mM MgCl2), and then the mixture was incubated in a water bath kettle at 37° C. to start the reaction. At each time point, 100 μL of the reaction system was added into a centrifuge tube containing 400 μL of internal standard working solution (containing a 200 ng/mL solution of dexamethasone, diclofenac, tolbutamide and labetalol in acetonitrile) precooled at 0° C. so as to stop the reaction, and the mixture was then centrifuged at 10,000 g for 10 min at 4° C. The supernatant was collected for LC-MS assay so as to obtain the values of in vitro metabolic half-life of the test compounds in liver microsomes of various species.
(In general: Microsomes from liver hold many membrane-bound enzymes, among them those of drug oxidation.)

Data set [3] in a line: In vitro metabolic stability, liver microsome incubation (rat). In kind it is in vitro ADME. The following applies: 1 mg/mL liver microsome protein, 37° C.; for half-life: rat, read-out: T1/2 in rat liver microsome min. How it is done:
as §1

For data set [4], the target named is T1, hP2X4 (human purinergic P2X receptor subtype 4) (Homo sapiens, UniProt Q99571).
T1 sequence (Q99571 1-404 isoform Q99571-2): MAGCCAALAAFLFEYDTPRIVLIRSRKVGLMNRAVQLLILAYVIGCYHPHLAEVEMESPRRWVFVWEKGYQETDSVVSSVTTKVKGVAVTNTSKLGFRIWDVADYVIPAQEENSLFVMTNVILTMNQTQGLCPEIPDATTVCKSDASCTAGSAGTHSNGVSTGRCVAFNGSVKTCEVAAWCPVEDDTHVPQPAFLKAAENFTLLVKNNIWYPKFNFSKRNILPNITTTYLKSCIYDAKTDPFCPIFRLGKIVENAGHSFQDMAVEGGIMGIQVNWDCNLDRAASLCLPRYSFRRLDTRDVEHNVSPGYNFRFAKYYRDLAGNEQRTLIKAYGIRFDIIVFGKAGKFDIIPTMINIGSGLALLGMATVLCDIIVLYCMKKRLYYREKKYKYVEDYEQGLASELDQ
Briefly: FLIPR assay of intracellular calcium increase induced by activation of hP2X4 expressed in HEK293 cells (agonist BZ-ATP 2.5 μM). It counts as cell-based. The following applies: HEK293 cells stably expressing hP2X4, FLIPR, read-out: P2X4 IC50. In short, it runs like this: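 HEK293 cells stably expressing hP2X4, loaded with Calcium 6 dye for 1.5 h at 37° C, then preincubated with compound 30 min at room temperature.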

A short description of data set [5]: In vitro metabolic stability, liver microsome incubation (human). It counts as in vitro ADME. The following applies: 1 mg/mL liver microsome protein, 37° C.; for half-life: human, liver microsomes, read-out: T1/2 in human liver microsome min. How it is done:
as §1

Data set [6] has as its system Male Dunkin Hartley guinea pigs. Briefly: Citric acid only cough model in guinea pigs. In kind it is in vivo. The following applies: guinea pig; for Cough inhibition rate Vs vehicle (%) / Cough latency / Mean number of coughs / Cough inhibition rate Vs baseline (%): 17.5% citric acid; for Cough inhibition rate Vs baseline (%): before vs after administration. As for the experimental part: Male Dunkin Hartley guinea pigs (300-350 g) were placed in an animal atomization box, and then the door of the atomization box was closed while the ultrasonic atomizer (Guangdong Yuehua) was turned on. 17.5% citric acid gas was introduced into the atomization box at a maximum atomization rate (about 2 mL/min) for 20 s, and coughs of the animals within 10 min were continuously observed from the time of the start of atomization. During the 10-min observation, coughs of the animals needed to be counted manually, and the number of coughs were judged according to cough postures of the guinea pigs, such as abdominal twitching, mouth opening, and head inclining downward abruptly. The number of coughs during the first 5 min and that during 10 min were recorded, and the cough latency of the guinea pigs, namely the time from the initiation of citric acid induction to the appearance of the 1st cough, was also recorded.
Cough inhibition rate Vs vehicle represents the percentage of reduction
[formula] in the number of coughs in the administration group compared to the vehicle group upon citric acid challenge; Cough inhibition rate Vs baseline represents the percentage of reduction
[formula] in the number of coughs in the administration group before and after administration.

Data set [7] concerns HepG2 cells. Put plainly: In vitro cytotoxicity assay in HepG2 cells, CCK-8 method. The following applies: read-out: HepG2 CC50, 48 h, CCK-8.
Description: as §2
Data set [8] relates to HepG2 cells.
Description: as §2
Where [9] appears, read: 20 mg/kg group, before administration (baseline).
Setting [10] is: 60 mg/kg group, before administration (baseline).

SMILES strings stand for the structures. pIC50: −log10 of the molar value. Where two headings read alike, the source gives them in different places.

In turn, `NS(=O)(=O)c1cc(NC(=O)Cc2ccccc2Cl)cc2n[nH]cc12` [Compound 2, 2-(2-chlorophenyl)-N-(4-sulfamoyl-2H-indazol-6-yl)acetamide] returned a CC50 at 48 h in data set [1] of more than 200000 nM. The half-life worked out at 3.54 h in data set [2], 0.809 h in data set [3] (liver microsomes) and 2.57 h in data set [5]. The pIC50 in data set [4] (numeric values) was 8.27.
In data set [1], `NS(=O)(=O)c1cc(NC(=O)Cc2ccccc2Cl)cc2nn(C(F)F)cc12` [Compound 1, 2-(2-chlorophenyl)-N-(2-(difluoromethyl)-4-sulfamoyl-2H-indazol-6-yl)acetamide] returned a CC50 at 48 h of more than 200000 nM. Besides, the half-life was 2.58 h in data set [2], 6.03 h in data set [3] (liver microsomes) and 11.5 h in data set [5]. Further, the pIC50 in data set [4] (numeric values) was 7.54. In addition, the “Effect on number of coughs and cough latency (in words)” value in data set [6] (20 mg/kg and 60 mg/kg, compared with vehicle group or before administration) was “reduce the number of coughs and prolong the cough latency in a dose-dependent manner”; in data set [6] (60 mg/kg, no significant difference from dextromethorphan at the same dosage), “significant improvement effect”. Further, the “Cough inhibition rate Vs vehicle (%)” value is 20.59% in data set [6] (20 mg/kg) and 46.75% in data set [6] (60 mg/kg). Further, the “Cough latency” value in data set [6] (setting [9]) came to 94.29 s; in data set [6] (20 mg/kg, after administration) it was 214.29 s; in data set [6] (setting [10]) it was 84.88 s; in data set [6] (60 mg/kg, after administration), 221.75 s. Moreover, the “Mean number of coughs” value was determined as 18.57 in data set [6] (setting [9]); 15.29 in data set [6] (20 mg/kg, after administration); 18.50 in data set [6] (setting [10]); 10.25 in data set [6] (60 mg/kg, after administration). Also, the “Cough inhibition rate Vs baseline (%)” value in data set [6] (20 mg/kg) was 17.69%; in data set [6] (60 mg/kg), 44.59%.
Regarding `CCCn1cc2c(S(N)(=O)=O)cc(NC(=O)Cc3ccccc3Cl)cc2n1` [Compound 5-A, 2-(2-chlorophenyl)-N-(2-propyl-4-sulfonylamino-2H-indazol-6-yl)acetamide], the CC50 at 48 h in data set [1] was more than 200000 nM. Further, the half-life in data set [2] was 0.0978 h; in data set [3] (liver microsomes), 2.37 h; in data set [5], 5.96 h. Also, the pIC50 in data set [4] (numeric values) is 8.28.
The molecule `N#Cc1ccc(Cn2cc3c(S(N)(=O)=O)cc(NC(=O)Cc4ccccc4Cl)cc3n2)cc1` [Compound 91, 2-(2-chlorophenyl)-N-(2-(4-cyanobenzyl)-4-sulfamoyl-2H-indazol-6-yl)acetamide] registered a CC50 at 48 h in data set [1] of more than 200000 nM. Also, the half-life in data set [2] came to 0.809 h; in data set [3] (liver microsomes) it was 1.84 h; in data set [5] it was 3.23 h. Besides, in data set [4] (class symbols), the pIC50 is not below 8.00.
In the case of `COc1ccc(CN(Cc2ccc(OC)cc2)S(=O)(=O)c2cc(NC(=O)Cc3ccccc3Cl)cc3c2cnn3Cc2ccc(C#N)cc2)cc1` [Compound 91A, N-(4-(N,N-bis(4-methoxybenzyl)sulfamoyl)-1-(4-cyanobenzyl)-1H-indazol-6-yl)-2-(2-chlorophenyl)acetamide], the CC50 in the data set on HepG2 cells [7] was more than 200000 nM. The “T1/2 in guinea pig liver microsome min” value in data set [2] came to 1.424 h. Also, the “T1/2 in rat liver microsome min” value in data set [3] was found to be 2.0857 h. In addition, the pIC50 in data set [4] (class symbols) was not below 8.00. For the same molecule, in data set [5], the “T1/2 in human liver microsome min” value was 1.6827 h.
Regarding `NS(=O)(=O)c1cc(NC(=O)Cc2ccccc2Cl)cc2c1cnn2-c1ccc(F)cc1` [Compound 44, 2-(2-chlorophenyl)-N-(1-(4-fluorophenyl)-4-sulfamoyl-1H-indazol-6-yl)acetamide], the half-life in data set [2] worked out at 1.2 h; in data set [3] (microsomes) it was 1.53 h; in data set [5], 5.08 h. In addition, the pIC50 in data set [4] (numeric values) was 7.43.
`CC(C)CCn1ncc2c(S(N)(=O)=O)cc(NC(=O)Cc3ccccc3Cl)cc21` [Compound 8-B, 2-(2-chlorophenyl)-N-(1-isopentyl-4-sulfamoyl-2H-indazol-6-yl)acetamide] showed a CC50 in the data set on HepG2 cells [8] of more than 200000 nM. For the same molecule, the pIC50 in data set [4] (numeric values) was 9.42. Further, the “T1/2 in human liver microsome min” value in data set [5] came to 0.4488 h.
`CCCn1ncc2c(S(N)(=O)=O)cc(NC(=O)Cc3ccccc3Cl)cc21` [Compound 5-B, 2-(2-chlorophenyl)-N-(1-propyl-4-sulfonylamino-1H-indazol-6-yl)acetamide] returned a CC50 with HepG2 cells [8] of more than 200000 nM. The pIC50 in data set [4] (numeric values) is 8.66. Further, the “T1/2 in human liver microsome min” value in data set [5] is 1.094 h.
In the case of `CC(C)Cn1ncc2c(S(N)(=O)=O)cc(NC(=O)Cc3ccccc3Cl)cc21` [Compound 7-B, 2-(2-chlorophenyl)-N-(1-isobutyl-4-sulfamoyl-2H-indazol-6-yl)acetamide], in the data set with HepG2 cells [8], the CC50 turned out to be 150000 nM. Further, the pIC50 in data set [4] (numeric values) was 8.63. The “T1/2 in human liver microsome min” value in data set [5] was found to be 0.5413 h.
In data set [1], `NS(=O)(=O)c1cc(NC(=O)Cc2ccccc2Cl)cc2nn(Cc3ccc(F)cc3)cc12` [Compound 88, 2-(2-chlorophenyl)-N-(2-(4-fluorobenzyl)-4-sulfamoyl-2H-indazol-6-yl)acetamide] yielded a CC50 at 48 h of more than 200000 nM. In addition, the half-life in data set [2] turned out to be 2 h; in data set [3] (liver microsomes), 2.07 h; in data set [5], 8.54 h. In data set [4] (class symbols), the pIC50 is not below 8.00.
As to `NS(=O)(=O)c1cc(NC(=O)Cc2ccccc2Cl)cc2c1cnn2CC1CCC1` [Compound 24-B, 2-(2-chlorophenyl)-N-(1-(cyclobutylmethyl)-4-sulfamoyl-1H-indazol-6-yl)acetamide], the CC50 at 48 h in data set [1] was more than 200000 nM. Also, the results for the half-life in data set [2], in data set [3] (liver microsomes) and in data set [5] were 2.41 h, 0.768 h and 1.84 h, respectively. The pIC50 in data set [4] (class symbols) is not below 8.00.
`NS(=O)(=O)c1cc(NC(=O)Cc2ccccc2Cl)cc2nc(-c3ccccc3)[nH]c12` [Compound 53, 2-(2-chlorophenyl)-N-(2-phenyl-7-sulfamoyl-1H-benzo[d]imidazol-5-yl)acetamide]: the half-life in data set [2] worked out at 0.154 h; in data set [3] (liver microsomes), 0.753 h; in data set [5], 3.79 h. The pIC50 in data set [4] (class symbols) is 5.30 to 6.70.

(Values after patent publication US12503444B2, “Compound containing benzene ring and application thereof” (WUHAN LL SCIENCE AND TECHNOLOGY DEVELOPMENT CO., LTD., priority 2019, dated 2025).)
